Data as given in ChEMBL document CHEMBL3407438, “Discovery of potent, orally bioavailable, small-molecule inhibitors of WNT signaling from a cell-based pathway screen” (J Med Chem, 2015).

Key:
[1] = Drug metabolism in mouse liver microsome at 10 uM after 30 mins by LC-MS analysis; assay type: ADME; conditions: liver microsomes, read-out: Drug metabolism
[2] = cells; assay type: cell-based; conditions: Homo sapiens, 7dF3
[3] = Drug metabolism in human liver microsome at 10 uM after 30 mins by LC-MS analysis; assay type: ADME; conditions: liver microsomes, read-out: Drug metabolism

| Structure (SMILES) | metabolised at 0.5 h, 10 µM [1] | IC50 [2] | metabolised at 0.5 h, 10 µM [3] |
| --- | --- | --- | --- |
| Cn1cc(-c2cncc(Cl)c2N2CCC(C(N)=O)CC2)cn1 | 27% | 778 nM | 4% |
| CS(=O)(=O)c1ccc(-c2cncc(Cl)c2N2CCC(C(N)=O)CC2)cc1 | 29% | 1670 nM | 0% |
| NC(=O)C1CCN(c2ccncc2)CC1 | – | > 30000 nM | – |
| NC(=O)C1CCN(c2c(Cl)cccc2Cl)CC1 | – | 27900 nM | – |
| COCCNC(=O)C1CCN(c2c(Cl)cncc2Cl)CC1 | – | > 30000 nM | – |
| O=C1CC2(CCN(c3c(Cl)cncc3-c3ccc(N4CCOCC4)cc3)CC2)CN1 | – | 746 nM | – |
| NC(=O)C1CCN(c2ccncc2-c2ccccc2)CC1 | 23% | 3260 nM | 4% |
| Cn1cc(-c2cncc(-c3ccc(N4CCOCC4)cc3)c2N2CCC3(CCNC3=O)CC2)cn1 | – | 1200 nM | – |
| O=C(Nc1ccccc1)C1CCN(c2c(Cl)cncc2Cl)CC1 | – | > 30000 nM | – |
| NCC1CCN(c2c(Cl)cncc2Cl)CC1 | – | 10000 nM | – |
| CNC(=O)C1CCN(c2c(Cl)cncc2Cl)CC1 | 57% | 12500 nM | 13% |
| O=C1NCCC12CCCN(c1c(Cl)cncc1-c1ccc(N3CCOCC3)cc1)C2 (racemic) | – | 5700 nM | – |
| O=C1NCCC12CCN(c1c(-c3ccc(N4CCOCC4)cc3)cncc1C1CC1)CC2 | – | 1000 nM | – |
| NC(=O)C1CCN(c2ccncc2Cl)CC1 | – | 23000 nM | 8% |
| CN(C)C(=O)C1CCN(c2c(Cl)cncc2Cl)CC1 | 99% | 26000 nM | 22% |
| O=C(C1CCN(c2c(Cl)cncc2Cl)CC1)N1CCOCC1 | – | 44600 nM | – |
| NC(=O)C1CCN(c2c(Cl)cncc2-c2ccncc2)CC1 | 40% | 728 nM | 5% |
| O=C1NCCC12CCN(c1c(-c3ccccc3)cncc1-c1ccc(N3CCOCC3)cc1)CC2 | – | > 30000 nM | – |
| Clc1cncc(Cl)c1N1CCCCC1 | – | > 30000 nM | – |

The remaining compounds from weak to strong by IC50 [2], led by results:

| metabolised at 0.5 h, 10 µM [1] | IC50 [2] | metabolised at 0.5 h, 10 µM [3] | Structure (SMILES) |
| --- | --- | --- | --- |
| – | 715 nM | – | CN1CCC2(CCN(c3c(Cl)cncc3-c3ccc(N4CCOCC4)cc3)CC2)C1=O |
| 35% | 360 nM | 13% | NC(=O)C1CCN(c2c(Br)cncc2Br)CC1 |
| 38% | 309 nM | 39% | NC(=O)C1CCN(c2c(Cl)cncc2-c2cccc(N3CCOCC3)c2)CC1 |
| – | 123 nM | – | CN(C)c1ccc(-c2cncc(Cl)c2N2CCC(C(N)=O)CC2)cc1 |
| 26% | 113 nM | 5% | Cc1cncc(-c2ccc(N3CCOCC3)cc2)c1N1CCC2(CCNC2=O)CC1 |
| 56% | 88 nM | 6% | NC(=O)C1CCN(c2c(Cl)cncc2-c2ccccc2)CC1 |
| 52% | 87 nM | – | NC(=O)C1CCN(c2c(Cl)cncc2-c2ccc(F)cc2)CC1 |
| 20% | 87 nM | 21% | CC1(C(N)=O)CCN(c2c(Cl)cncc2-c2ccc(N3CCOCC3)cc2)CC1 |
| 17% | 78 nM | 38% | CC(C)c1cncc(-c2ccc(N3CCOCC3)cc2)c1N1CCC2(CCNC2=O)CC1 |
| 78% | 70 nM | – | N#CC1CCN(c2c(Cl)cncc2-c2ccc(N3CCOCC3)cc2)CC1 |
| 42% | 55 nM | – | O=C1NCCC12CCN(c1c(Cl)cncc1-c1ccc(N3CCOCC3)cc1)C2 (racemic) |
| 21% | 42 nM | 19% | NC(=O)C1CCN(c2c(Cl)cncc2-c2ccc(N3CCOCC3)cc2)CC1 |
| 97% | 40 nM | 27% | NC(=O)C1CCN(c2c(Cl)cncc2-c2cccs2)CC1 |
| 39% | 12 nM | – | C=C(C)c1cncc(-c2ccc(N3CCOCC3)cc2)c1N1CCC2(CCNC2=O)CC1 |
